Measurements as given in PMC8395737 (2021).

Tests used:
[1] = test system: TP3-T6 (DNA, G4) TGGGGTCCGAGGCGGGGCTTGGG; test: 1H NMR imino proton titration; conditions: 70 mM KCl, 20 mM KH2PO4, pH 7.0, 25 °C, H2O/D2O 9:1, DMSO <7%
[2] = test system: TP3-T6 (DNA, G4) TGGGGTCCGAGGCGGGGCTTGGG; test: CD melting at 285 nm; conditions: 70 mM KCl, 20 mM phosphate, pH 7.1, 2 µM DNA, 6 µM ligand
[3] = test system: TP3-T6 (DNA, G4) TGGGGTCCGAGGCGGGGCTTGGG; test: ligand fluorescence titration, EQUISPEC multivariate fit; conditions: 70 mM KCl, 20 mM potassium phosphate; 20 mM phosphate buffer, pH 7.1, 20 °C, 3 µM ligand

O=C(c1cc(Cc2n[nH]c(=O)c3ccccc23)ccc1F)N1CCN(C(=O)C2CC2)CC1
binding ([1]; up to R = 2.0, DNA 0.24–0.48 mM): no

C[C@]1(c2nc3c(C(N)=O)cccc3[nH]2)CCCN1
ΔTm ([2]; derived from two Tm (58.8 ± 1.3, 59.6 ± 0.8)): -0.8 °C | Kb [3]: 5.48 ± 0.16 × 10^5 M^-1 | binding ([1]; R up to 2.0, 5'-end tetrad slightly shifted): weak

NC(=O)c1cccc2cn(-c3ccc([C@@H]4CCCNC4)cc3)nc12
ΔTm ([2]; derived from two Tm (60.3 ± 1.3, 59.6 ± 0.8)): 0.7 °C | Kb [3]: 5.24 ± 0.20 × 10^5 M^-1 | binding ([1]; R up to 2.0, 3'-end tetrad): yes

NC(=O)n1ccc2ccc(-c3ccc(CN4CCCCC4)cc3)nc21
ΔTm ([2]; derived from two Tm (60.2 ± 1.0, 59.6 ± 0.8)): 0.6 °C | Kb [3]: 5.45 ± 0.15 × 10^5 M^-1 | binding ([1]; R up to 2.0, 3'-end tetrad): yes
